From ChEMBL document CHEMBL4507299, “Data for DCP probe PF-04554878” (2021)

Key:
[1] = target: RAF proto-oncogene serine/threonine-protein kinase (Homo sapiens) (UniProt P04049)
[2] = target: Casein kinase I isoform gamma-3 (Homo sapiens) (UniProt Q9Y6M4)
[3] = target: Tyrosine-protein kinase Mer (Homo sapiens) (UniProt Q12866)
[4] = target: Calcium/calmodulin-dependent protein kinase type II subunit gamma (Homo sapiens) (UniProt Q13555)
[5] = target: Ephrin type-A receptor 7 (Homo sapiens) (UniProt Q15375)
[6] = target: 5'-AMP-activated protein kinase catalytic subunit alpha-1 (Homo sapiens) (UniProt Q13131)
[7] = target: Dual specificity mitogen-activated protein kinase kinase 7 (Homo sapiens) (UniProt O14733)
[8] = target: Serine/threonine-protein kinase TAO1 (Homo sapiens) (UniProt Q7L7X3)
[9] = target: Cyclin-dependent kinase 4 (Homo sapiens) (UniProt P11802)
[10] = target: Serine/threonine-protein kinase PAK 5 (Homo sapiens) (UniProt Q9P286)
Serine/threonine-protein kinase PAK 5 (Homo sapiens), sequence (Q9P286 whole entry, looked up): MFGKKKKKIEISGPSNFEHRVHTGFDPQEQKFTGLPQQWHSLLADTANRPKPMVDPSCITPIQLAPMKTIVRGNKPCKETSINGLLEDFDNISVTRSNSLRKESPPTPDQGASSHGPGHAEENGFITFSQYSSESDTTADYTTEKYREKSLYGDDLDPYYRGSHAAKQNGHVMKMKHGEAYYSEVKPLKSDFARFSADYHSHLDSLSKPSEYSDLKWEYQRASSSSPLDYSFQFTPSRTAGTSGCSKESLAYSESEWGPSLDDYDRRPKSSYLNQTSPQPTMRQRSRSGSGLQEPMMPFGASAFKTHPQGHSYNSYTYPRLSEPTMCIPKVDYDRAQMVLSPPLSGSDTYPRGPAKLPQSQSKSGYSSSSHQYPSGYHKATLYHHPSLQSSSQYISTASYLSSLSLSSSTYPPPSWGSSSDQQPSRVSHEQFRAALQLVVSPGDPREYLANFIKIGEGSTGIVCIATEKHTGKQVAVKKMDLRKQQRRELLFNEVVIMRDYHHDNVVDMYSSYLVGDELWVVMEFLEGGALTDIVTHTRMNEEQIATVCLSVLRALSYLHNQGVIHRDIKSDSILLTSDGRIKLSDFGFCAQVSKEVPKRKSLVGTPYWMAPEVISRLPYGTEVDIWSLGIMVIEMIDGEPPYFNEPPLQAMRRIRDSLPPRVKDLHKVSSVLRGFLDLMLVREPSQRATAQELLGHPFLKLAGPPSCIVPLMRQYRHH

[11] = target: Mitogen-activated protein kinase kinase kinase kinase 2 (Homo sapiens) (UniProt Q12851)
Mitogen-activated protein kinase kinase kinase kinase 2 (Homo sapiens), sequence (Q12851 whole entry): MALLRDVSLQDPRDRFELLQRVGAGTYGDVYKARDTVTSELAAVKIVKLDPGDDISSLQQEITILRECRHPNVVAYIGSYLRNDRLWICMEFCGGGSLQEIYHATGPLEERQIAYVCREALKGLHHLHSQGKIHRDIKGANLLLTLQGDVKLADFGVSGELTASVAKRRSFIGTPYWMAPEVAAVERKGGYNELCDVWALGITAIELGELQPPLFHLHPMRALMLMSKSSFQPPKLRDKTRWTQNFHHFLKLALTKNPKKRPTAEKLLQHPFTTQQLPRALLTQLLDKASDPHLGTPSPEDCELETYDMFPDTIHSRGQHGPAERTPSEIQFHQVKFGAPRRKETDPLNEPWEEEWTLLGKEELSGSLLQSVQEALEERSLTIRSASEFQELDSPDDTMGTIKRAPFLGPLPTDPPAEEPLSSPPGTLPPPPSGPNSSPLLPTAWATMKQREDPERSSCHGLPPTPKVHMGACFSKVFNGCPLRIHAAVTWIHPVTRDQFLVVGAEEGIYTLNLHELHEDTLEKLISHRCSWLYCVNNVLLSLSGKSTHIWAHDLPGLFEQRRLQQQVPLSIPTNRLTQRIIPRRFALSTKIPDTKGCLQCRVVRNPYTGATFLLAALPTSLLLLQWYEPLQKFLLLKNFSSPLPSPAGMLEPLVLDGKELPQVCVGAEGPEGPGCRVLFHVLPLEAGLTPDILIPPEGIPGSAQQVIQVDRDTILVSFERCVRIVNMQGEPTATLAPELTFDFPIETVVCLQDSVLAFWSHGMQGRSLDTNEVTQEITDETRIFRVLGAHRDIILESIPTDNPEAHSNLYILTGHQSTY

[12] = target: Cyclin-dependent kinase 2 homolog (Plasmodium falciparum (isolate 3D7)) (UniProt P61075)
[13] = target: Insulin-like growth factor 1 receptor (Homo sapiens) (UniProt P08069)
[14] = target: Serine/threonine-protein kinase Nek9 (Homo sapiens) (UniProt Q8TD19)
[15] = target: Homeodomain-interacting protein kinase 4 (Homo sapiens) (UniProt Q8NE63)
[16] = target: Tyrosine-protein kinase Lyn (Homo sapiens, UniProt P07948)
[17] = target: NT-3 growth factor receptor (Homo sapiens) (UniProt Q16288)
[18] = target: Death-associated protein kinase 3 (Homo sapiens) (UniProt O43293)
Death-associated protein kinase 3 (Homo sapiens), sequence (O43293 whole entry, looked up): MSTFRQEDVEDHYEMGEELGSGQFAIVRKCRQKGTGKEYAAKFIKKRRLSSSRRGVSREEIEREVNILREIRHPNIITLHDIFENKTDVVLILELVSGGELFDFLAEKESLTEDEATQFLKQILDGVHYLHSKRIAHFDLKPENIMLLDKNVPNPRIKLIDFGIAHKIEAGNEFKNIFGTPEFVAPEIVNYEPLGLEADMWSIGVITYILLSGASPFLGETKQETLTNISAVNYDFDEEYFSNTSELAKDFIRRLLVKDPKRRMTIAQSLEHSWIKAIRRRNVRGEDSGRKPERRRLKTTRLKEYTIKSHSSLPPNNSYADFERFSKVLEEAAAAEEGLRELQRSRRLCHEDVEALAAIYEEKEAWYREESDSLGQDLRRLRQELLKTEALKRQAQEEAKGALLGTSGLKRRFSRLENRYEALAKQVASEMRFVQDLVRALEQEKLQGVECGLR

[19] = target: Serine/threonine-protein kinase 36 (Homo sapiens) (UniProt Q9NRP7)
[20] = test system: Receptor-type tyrosine-protein kinase FLT3 (Homo sapiens), P36888 [UNDEFINED MUTATION]
[21] = target: Sodium-dependent serotonin transporter (Homo sapiens) (UniProt P31645); conditions: Compound concentration 10.0 uM
[22] = target: Histamine H2 receptor (Homo sapiens) (UniProt P25021); conditions: Compound concentration 10.0 uM
[23] = test system: Proto-oncogene tyrosine-protein kinase receptor Ret (Homo sapiens), P07949 [M918T]
[24] = target: Alpha-2A adrenergic receptor (Homo sapiens) (UniProt P08913); conditions: Compound concentration 10.0 uM
[25] = target: cAMP-dependent protein kinase catalytic subunit alpha (Homo sapiens) (UniProt P17612)
[26] = target: Receptor tyrosine-protein kinase erbB-2 (Homo sapiens) (UniProt P04626)
[27] = target: Serine/threonine-protein kinase MARK2 (Homo sapiens) (UniProt Q7KZI7)
[28] = target: Myosin light chain kinase family member 4 (Homo sapiens) (UniProt Q86YV6)
Myosin light chain kinase family member 4 (Homo sapiens), sequence (Q86YV6 whole entry): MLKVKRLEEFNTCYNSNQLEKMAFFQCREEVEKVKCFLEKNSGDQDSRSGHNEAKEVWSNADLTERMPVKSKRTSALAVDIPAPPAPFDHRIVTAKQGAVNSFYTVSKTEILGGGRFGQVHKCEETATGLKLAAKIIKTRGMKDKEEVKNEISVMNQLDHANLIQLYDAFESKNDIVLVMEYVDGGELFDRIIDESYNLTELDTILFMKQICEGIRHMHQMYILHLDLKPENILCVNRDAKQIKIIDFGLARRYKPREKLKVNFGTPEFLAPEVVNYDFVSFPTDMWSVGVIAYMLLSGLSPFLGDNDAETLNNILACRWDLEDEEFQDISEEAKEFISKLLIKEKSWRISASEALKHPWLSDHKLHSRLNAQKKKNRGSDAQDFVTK

[29] = target: Macrophage colony-stimulating factor 1 receptor (Homo sapiens) (UniProt P07333)
[30] = target: Serine/threonine-protein kinase 10 (Homo sapiens) (UniProt O94804)
Serine/threonine-protein kinase 10 (Homo sapiens), sequence (O94804 whole entry, looked up): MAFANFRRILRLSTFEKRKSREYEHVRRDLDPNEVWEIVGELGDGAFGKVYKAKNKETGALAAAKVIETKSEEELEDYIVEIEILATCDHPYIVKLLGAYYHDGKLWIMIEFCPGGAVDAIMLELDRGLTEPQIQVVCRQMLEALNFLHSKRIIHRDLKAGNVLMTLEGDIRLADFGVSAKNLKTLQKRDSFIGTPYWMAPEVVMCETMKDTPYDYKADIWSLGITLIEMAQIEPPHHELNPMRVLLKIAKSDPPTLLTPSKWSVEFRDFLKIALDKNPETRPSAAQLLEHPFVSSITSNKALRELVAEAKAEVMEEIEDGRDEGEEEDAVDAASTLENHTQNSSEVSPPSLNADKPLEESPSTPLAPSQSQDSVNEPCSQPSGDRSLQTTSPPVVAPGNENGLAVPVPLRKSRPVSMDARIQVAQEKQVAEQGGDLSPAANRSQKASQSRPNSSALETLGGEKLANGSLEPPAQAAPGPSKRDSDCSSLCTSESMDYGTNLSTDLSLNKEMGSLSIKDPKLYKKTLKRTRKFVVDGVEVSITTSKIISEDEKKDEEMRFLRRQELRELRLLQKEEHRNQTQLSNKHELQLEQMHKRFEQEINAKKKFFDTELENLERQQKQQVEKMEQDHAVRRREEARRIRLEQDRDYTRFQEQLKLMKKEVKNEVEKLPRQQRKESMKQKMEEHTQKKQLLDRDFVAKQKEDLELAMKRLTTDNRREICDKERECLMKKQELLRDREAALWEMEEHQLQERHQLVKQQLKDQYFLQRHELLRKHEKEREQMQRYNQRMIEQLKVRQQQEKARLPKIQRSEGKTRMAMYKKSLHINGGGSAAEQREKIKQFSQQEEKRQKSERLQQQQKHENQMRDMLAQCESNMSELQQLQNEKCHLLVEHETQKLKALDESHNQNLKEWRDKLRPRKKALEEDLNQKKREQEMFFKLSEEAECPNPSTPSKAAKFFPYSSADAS

[31] = target: Serine/threonine-protein kinase WNK1 (Homo sapiens) (UniProt Q9H4A3)
[32] = target: Glycogen synthase kinase-3 alpha (Homo sapiens) (UniProt P49840)
[33] = target: Serine/threonine-protein kinase SIK3 (Homo sapiens) (UniProt Q9Y2K2)
[34] = target: Mitogen-activated protein kinase kinase kinase 1 (Homo sapiens) (UniProt Q13233)
[35] = target: Mast/stem cell growth factor receptor Kit (Homo sapiens) (UniProt P10721)
Mast/stem cell growth factor receptor Kit (Homo sapiens), sequence (P10721 whole entry): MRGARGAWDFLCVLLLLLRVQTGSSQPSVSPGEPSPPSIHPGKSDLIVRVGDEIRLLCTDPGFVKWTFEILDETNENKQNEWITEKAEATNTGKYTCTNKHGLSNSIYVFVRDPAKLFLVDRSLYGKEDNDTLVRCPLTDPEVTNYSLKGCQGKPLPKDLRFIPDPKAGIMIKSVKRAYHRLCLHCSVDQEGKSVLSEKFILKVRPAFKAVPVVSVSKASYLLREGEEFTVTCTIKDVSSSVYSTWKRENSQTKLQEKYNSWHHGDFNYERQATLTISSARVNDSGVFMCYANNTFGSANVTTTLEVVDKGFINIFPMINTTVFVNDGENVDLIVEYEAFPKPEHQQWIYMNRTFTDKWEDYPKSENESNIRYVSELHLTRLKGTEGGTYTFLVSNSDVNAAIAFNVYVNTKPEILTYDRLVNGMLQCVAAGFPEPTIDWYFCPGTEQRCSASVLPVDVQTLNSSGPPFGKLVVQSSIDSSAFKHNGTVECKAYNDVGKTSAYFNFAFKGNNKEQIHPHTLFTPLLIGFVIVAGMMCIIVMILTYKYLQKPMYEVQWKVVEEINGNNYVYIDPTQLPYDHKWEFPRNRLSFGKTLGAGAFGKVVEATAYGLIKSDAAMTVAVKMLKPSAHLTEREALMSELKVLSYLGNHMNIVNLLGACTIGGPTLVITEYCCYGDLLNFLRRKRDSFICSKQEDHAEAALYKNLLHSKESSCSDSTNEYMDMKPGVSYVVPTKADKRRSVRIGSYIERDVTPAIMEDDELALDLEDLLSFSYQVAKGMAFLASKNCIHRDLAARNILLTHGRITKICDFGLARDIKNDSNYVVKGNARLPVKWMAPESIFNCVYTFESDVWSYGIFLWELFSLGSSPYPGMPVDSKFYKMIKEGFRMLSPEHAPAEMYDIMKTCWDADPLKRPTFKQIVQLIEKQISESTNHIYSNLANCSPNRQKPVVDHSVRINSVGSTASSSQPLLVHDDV

[36] = target: Protein kinase C theta type (Homo sapiens) (UniProt Q04759)
[37] = target: Serine/threonine-protein kinase TNNI3K (Homo sapiens) (UniProt Q59H18)
[38] = target: Phosphorylase b kinase gamma catalytic chain, skeletal muscle/heart isoform (Homo sapiens) (UniProt Q16816)
[39] = test system: Mast/stem cell growth factor receptor Kit (Homo sapiens), P10721 [V559D,T670I]
Mast/stem cell growth factor receptor Kit (Homo sapiens), P10721 [V559D,T670I], sequence (P10721 whole entry V559D/T670I): as the sequence (P10721 whole entry) above, with V559D, T670I counted along it

[40] = target: Alpha-2C adrenergic receptor (Homo sapiens) (UniProt P18825); conditions: Compound concentration 10.0 uM
[41] = target: MAP/microtubule affinity-regulating kinase 3 (Homo sapiens) (UniProt P27448)
[42] = target: Wee1-like protein kinase (Homo sapiens) (UniProt P30291)
[43] = target: Aurora kinase C (Homo sapiens) (UniProt Q9UQB9)
[44] = target: Serine/threonine-protein kinase BRSK2 (Homo sapiens) (UniProt Q8IWQ3)
[45] = target: Cyclin-dependent kinase-like 5 (Homo sapiens) (UniProt O76039)
[46] = Compound concentration 100.0 nM
[47] = Compound concentration 1000.0 nM

RAF proto-oncogene serine/threonine-protein kinase (Homo sapiens), sequence (P04049 whole entry, canonical isoform): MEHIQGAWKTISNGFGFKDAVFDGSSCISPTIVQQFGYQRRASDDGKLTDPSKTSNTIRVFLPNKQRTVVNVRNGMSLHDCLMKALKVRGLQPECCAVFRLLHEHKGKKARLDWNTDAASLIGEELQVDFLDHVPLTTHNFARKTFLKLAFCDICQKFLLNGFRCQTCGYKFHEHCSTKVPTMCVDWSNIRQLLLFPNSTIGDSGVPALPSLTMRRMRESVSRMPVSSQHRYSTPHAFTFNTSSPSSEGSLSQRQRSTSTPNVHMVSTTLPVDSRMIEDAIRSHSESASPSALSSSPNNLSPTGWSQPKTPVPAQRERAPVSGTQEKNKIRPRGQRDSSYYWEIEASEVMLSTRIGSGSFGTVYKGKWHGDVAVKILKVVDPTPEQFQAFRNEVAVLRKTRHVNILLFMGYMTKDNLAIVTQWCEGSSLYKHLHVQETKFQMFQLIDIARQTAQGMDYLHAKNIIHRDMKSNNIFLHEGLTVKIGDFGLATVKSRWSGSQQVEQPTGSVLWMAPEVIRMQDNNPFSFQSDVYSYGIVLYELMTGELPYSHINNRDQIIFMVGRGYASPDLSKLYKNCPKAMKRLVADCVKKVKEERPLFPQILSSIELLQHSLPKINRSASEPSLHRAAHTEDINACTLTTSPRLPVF

## CNC(=O)c1ccc(Nc2ncc(C(F)(F)F)c(NCc3nccnc3N(C)S(C)(=O)=O)n2)cc1 [DEFACTINIB]
[1]; [46]
  residual activity: 97%
[2]; [46]
  residual activity: 100%
[3]; [46]
  residual activity: 54%
[4]; [46]
  residual activity: 79%
[5]; [46]
  residual activity: 68%
[6]; [46]
  residual activity: 84%
[7]; [46]
  residual activity: 97%
[8]; [46]
  residual activity: 50%
[9]; [46]
  residual activity: 100%
[10]; [46]
  residual activity: 62%
[11]; [46]
  residual activity: 100%
[12]; [46]
  residual activity: 89%
[13]; [46]
  residual activity: 84%
[14]; [46]
  residual activity: 80%
[15]; [46]
  residual activity: 54%
[16]; [46]
  residual activity: 85%
[17]; [46]
  residual activity: 41%
[18]; [46]
  residual activity: 75%
[19]; [46]
  residual activity: 89%
[20]; [46]
  residual activity: 14%
[21]
  inhibition: 2.45%
[22]
  inhibition: 30.2%
[23]; [46]
  residual activity: 72%
[24]
  inhibition: 9.61%
[25]; [46]
  residual activity: 100%
[26]; [46]
  residual activity: 100%
[27]; [46]
  residual activity: 66%
[28]; [46]
  residual activity: 100%
[29]; [46]
  residual activity: 76%
[30]; [46]
  residual activity: 77%
[31]; [46]
  residual activity: 100%
[32]; [46]
  residual activity: 83%
[33]; [46]
  residual activity: 82%
[34]; [46]
  residual activity: 100%
[35]; [46]
  residual activity: 84%
[36]; [46]
  residual activity: 89%
[37]; [46]
  residual activity: 100%
[38]; [46]
  residual activity: 100%
[39]; [46]
  residual activity: 100%
[40]
  inhibition: 4.73%
[41]; [46]
  residual activity: 90%
[42]; [46]
  residual activity: 95%
[43]; [46]
  residual activity: 47%
[44]; [46]
  residual activity: 100%
[45]; [46]
  residual activity: 100%

## CN(c1ccnc(CNc2nc(Nc3ccc4c(c3)CC(=O)N4)ncc2C(F)(F)F)n1)S(C)(=O)=O [PF-00911705]
[1]; [47]
  residual activity: 85%
[2]; [47]
  residual activity: 100%
[3]; [47]
  residual activity: 21%
[4]; [47]
  residual activity: 100%
[5]; [47]
  residual activity: 87%
[6]; [47]
  residual activity: 80%
[7]; [47]
  residual activity: 73%
[8]; [47]
  residual activity: 3.7%
[9]; [47]
  residual activity: 100%
[10]; [47]
  residual activity: 76%
[11]; [47]
  residual activity: 39%
[12]; [47]
  residual activity: 75%
[13]; [47]
  residual activity: 100%
[14]; [47]
  residual activity: 63%
[15]; [47]
  residual activity: 35%
[16]; [47]
  residual activity: 80%
[17]; [47]
  residual activity: 45%
[18]; [47]
  residual activity: 33%
[19]; [47]
  residual activity: 87%
[20]; [47]
  residual activity: 0.7%
[21]
  inhibition: 33.5%
[22]
  inhibition: 1.75%
[23]; [47]
  residual activity: 50%
[24]
  inhibition: 0.4%
[25]; [47]
  residual activity: 81%
[26]; [47]
  residual activity: 100%
[27]; [47]
  residual activity: 47%
[28]; [47]
  residual activity: 35%
[29]; [47]
  residual activity: 100%
[30]; [47]
  residual activity: 100%
[31]; [47]
  residual activity: 87%
[32]; [47]
  residual activity: 64%
[33]; [47]
  residual activity: 82%
[34]; [47]
  residual activity: 49%
[35]; [47]
  residual activity: 85%
[36]; [47]
  residual activity: 55%
[37]; [47]
  residual activity: 73%
[38]; [47]
  residual activity: 76%
[39]; [47]
  residual activity: 100%
[40]
  inhibition: 4.91%
[41]; [47]
  residual activity: 52%
[42]; [47]
  residual activity: 13%
[43]; [47]
  residual activity: 14%
[44]; [47]
  residual activity: 97%
[45]; [47]
  residual activity: 87%
